From publication PMC7497249, “Synthesis and Biological Screening of New Lawson Derivatives as Selective Substrate‐Based Inhibitors of Cytochrome bo3 Ubiquinol Oxidase from Escherichia coli” (Chemmedchem, 2020)
Several values for one entry are separate records, joined by “and”; a condition that tells them apart may be missing. Equal values may be shown once. Read-outs that look alike come from different tables or passages of the source.

How the values were obtained:
[1] = absorbance-based thermodynamic equilibrium solubility assay; assay type: physicochemical; settings: buffer 20 mM NaPi, 50 mM NaCl, 0.02 % DDM, pH 8.0, room temperature; for solubility at 1 day: sodium phosphate buffer
Protocol: To meet the requirements for further functional investigations, the solubilities of the HNQ compounds were determined by an absorbance‐based thermodynamic equilibrium solubility assay.36 As shown in Scheme 3a, plotting absorbance over concentration at the wavelength of the maximum peak of the absorbance spectra, (HNQ‐2 at λ=274 nm), provides a saturation point at 1.26±0.03 mM (solubility graphs for all HNQ compounds are shown in Figure S37). […]. Therefore, all twelve HNQ compounds are feasible for further functional studies.
Solubility assay: Thermodynamic equilibrium solubility of HNQ compounds was determined in sodium phosphate buffer containing 20 mM NaPi, 50 mM NaCl, 0.02 % DDM at pH 8.0. All steps were performed at room temperature following the method by Bharate and Vishwakarma.36 Measurements were done in triplicates. HNQ compounds were dissolved in a particular amount of methanol or CH2Cl2 (HNQ‐9) needed for complete dissolving. Required volumes of these methanol stock solutions were transferred in 1.5 mL reaction tubes (0.1–600 μL dependent on compound and stock concentration) to get a concentration row. After 24–48 h complete evaporation of methanol or CH2Cl2 was accomplished. Remaining solid compounds were dissolved by adding 100/200 μL of sodium phosphate buffer to the reaction tubes, which were shaken at 200 rpm for one day for equilibration. Next day, centrifugation of the reaction tubes for 30 min at 13 000 rpm at 11000 g. 50/100 μL of supernatant were pipetted into a 96‐well plate (UV‐Star, Greiner), and absorbance spectra were recorded for each well with a TECAN Spark plate reader (Tecan Trading AG, Switzerland). By plotting absorbance at λ max against concentration [mM] of the compound, saturation point of graph indicates the thermodynamic equilibrium solubility. Data analysis and visualization with SigmaPlot Pro 12.5 (Systat Software GmbH, Germany).

[2] = biological target: T1, purified E. coli cyt bd-I oxidase (Escherichia coli, UniProt P0ABJ9); assay: biochemical; settings: for remaining activity at 250 µM: read-out: Residual activity for oxygen reduction, Cytochrome bd-I
T1 construct: made in house; host or cells: E. coli C43(DE3) Δbo3 with plasmid pet17b-cydABX-StrepII
Protocol: (§1) The inhibitory effect of a set of HNQs was screened in micromolar range to identify selective cyt bo3 and cyt bd‐I inhibitors. Oxygen reduction was measured via a Clark‐type electrode. Turnover rates of cyt bo3 and bd‐I experiments are presented as relative activities (Figure 1). For experimental overview and further information see Supporting Information (Figures S38–S40), Tables S2–3). Activity of cyt bo 3 was strongly (>50 %) reduced by HNQ‐1, ‐2, ‐6, ‐7 and ‐12. […]. Overall, the E. coli bd‐I‐type oxidase was less sensitive to the majority of examined compounds. […]; HNQ‐12: 56 %).
(§2) Figure 1 Screening of the inhibition potentials of tested hydroxynaphthoquinones (HNQ) on the oxidase reduction activity of purified E. coli cytbo3 (white) and bd‐I (light gray) oxidase. Inhibition assay using HNQs at 250 μM in the presence of 200 μM ubiquinone‐1 and 5 mM dithiothreitol. Oxygen reduction activity was calculated from oxygen consumption rates at 30 nM enzyme concentration at RT for each experiment. 100 % activity=adding corresponding volume of EtOH. KCN (20 μM) and HQNO (250 μM) represent positive inhibition controls for cyt bo3. The data are mean values of three independent experiments ± standard deviation.
(§3) Oxygen reductase activity measurements: Oxygen reductase activity was measured as oxygen consumption rate of purified protein by an OX‐MR Clark‐type oxygen electrode linked to a PA 2000 picoammeter and to an ADC‐216 for analog to digital conversion. Recording of data with SensorTrace Basic 2.1 software (all Unisense, Denmark).
(§4) Measurements were performed at room temperature in stirred 2 mL – glass vials with a total reaction volume of 600 μL. Oxygen consumption was initiated by adding 30 nM of the respective enzyme to the equilibrated mixture containing 20 mM NaPi (pH 8.0), 50 mM NaCl, 0.02 % DDM, 5 mM dithiothreitol (DTT) and 200 μM Ubiquinone‐1 (2,3‐dimethoxy‐5‐methyl‐6‐(3‐methylbut‐2‐en‐1‐yl)‐1,4‐benzoquinone). Equilibration was done for 10 min prior to enzyme addition. Inhibition experiments with 250 μM of respective HNQ from 20 mM stock solution in EtOH before equilibration. Data analysis and visualization with Origin Lab Pro 9.5 (Additive GmbH, Germany). HQNO (2‐heptyl‐4‐quinolinol 1‐oxide) was purchased from biomol GmbH, Hamburg. Determination of apparent k i (k i ^app) was performed under the same conditions but with a range of inhibitor concentrations from 1000 μM to 0.2 μM. The k i ^app value was adopted as the EC50 from the sigmoidal DoseResp Fit. Further information can be found in Figures S40–S43.

[3] = biological target: T2, purified E. coli cyt bo3 oxidase (Escherichia coli, UniProt P0ABI8); assay: biochemical; settings: for inhibition at 250 µM: read-out: inhibition (reduction) of cyt bo3 activity; for remaining activity at 250 µM: read-out: Residual activity for oxygen reduction, Cytochrome bo3
T2 construct: made in house; host or cells: E. coli strain GO195 with plasmid pIRHisA
Protocol: as §1, §2, §3, §4

[4] = biological target: T3, cyt bo3 (Escherichia coli, UniProt P0ABI8); settings: steady state kinetic experiments; read-out: kiapp; cited from earlier work
T3 construct: made in house; host or cells: E. coli strain GO195 with plasmid pIRHisA

[5] = aqueous with cosolvent or surfactant or cyclodextrin, thermodynamic from solid
[6] = inhibitor 250 µM, 200 μM ubiquinone-1, 5 mM DTT, 30 nM enzyme, RT, mean of three ± SD, 100 % = EtOH
[7] = HNQ 250 μM, 200 μM ubiquinone-1
[8] = inhibitor 250 µM, 200 μM ubiquinone-1, 5 mM DTT, 30 nM enzyme, RT, mean of three ± SD, 100 % = EtOH, listed as HNQ-4

T1 sequence (P56100 whole entry): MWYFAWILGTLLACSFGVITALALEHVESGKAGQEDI
T1 sequence (P0ABJ9 whole entry): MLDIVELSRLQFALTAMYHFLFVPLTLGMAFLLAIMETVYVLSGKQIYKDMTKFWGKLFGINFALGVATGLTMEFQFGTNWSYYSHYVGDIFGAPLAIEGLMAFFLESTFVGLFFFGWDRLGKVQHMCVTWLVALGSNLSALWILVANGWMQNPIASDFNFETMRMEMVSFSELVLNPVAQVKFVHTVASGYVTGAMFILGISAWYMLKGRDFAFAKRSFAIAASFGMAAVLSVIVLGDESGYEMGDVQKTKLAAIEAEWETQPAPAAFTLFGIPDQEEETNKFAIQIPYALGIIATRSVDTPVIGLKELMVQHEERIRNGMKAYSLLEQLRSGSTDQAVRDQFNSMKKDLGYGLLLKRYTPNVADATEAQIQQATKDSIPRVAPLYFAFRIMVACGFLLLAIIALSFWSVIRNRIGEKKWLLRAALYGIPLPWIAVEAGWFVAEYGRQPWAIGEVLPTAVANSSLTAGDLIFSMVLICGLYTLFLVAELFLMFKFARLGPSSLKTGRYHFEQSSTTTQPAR
T1 sequence (P0ABK2 whole entry, further chain): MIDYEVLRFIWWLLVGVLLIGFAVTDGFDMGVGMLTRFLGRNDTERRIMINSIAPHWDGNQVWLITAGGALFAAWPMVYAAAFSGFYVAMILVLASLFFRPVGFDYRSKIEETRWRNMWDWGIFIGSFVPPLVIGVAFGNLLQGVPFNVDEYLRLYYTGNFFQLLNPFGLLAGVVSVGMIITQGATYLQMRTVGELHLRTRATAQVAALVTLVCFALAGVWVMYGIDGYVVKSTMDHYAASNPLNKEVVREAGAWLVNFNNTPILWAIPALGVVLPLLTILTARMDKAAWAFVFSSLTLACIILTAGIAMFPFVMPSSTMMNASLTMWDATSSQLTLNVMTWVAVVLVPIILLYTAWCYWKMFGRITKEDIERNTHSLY
T2 sequence (P0ABJ1 25-315): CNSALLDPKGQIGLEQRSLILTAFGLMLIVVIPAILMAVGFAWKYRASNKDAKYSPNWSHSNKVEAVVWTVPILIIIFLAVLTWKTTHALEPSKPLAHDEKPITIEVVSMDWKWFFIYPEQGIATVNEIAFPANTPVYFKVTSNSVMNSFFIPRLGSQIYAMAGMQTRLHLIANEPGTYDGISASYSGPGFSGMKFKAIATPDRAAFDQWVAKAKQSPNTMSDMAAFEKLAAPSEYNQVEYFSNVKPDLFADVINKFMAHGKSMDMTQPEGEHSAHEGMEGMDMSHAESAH
T2 sequence (P0ABJ3 whole entry, further chain): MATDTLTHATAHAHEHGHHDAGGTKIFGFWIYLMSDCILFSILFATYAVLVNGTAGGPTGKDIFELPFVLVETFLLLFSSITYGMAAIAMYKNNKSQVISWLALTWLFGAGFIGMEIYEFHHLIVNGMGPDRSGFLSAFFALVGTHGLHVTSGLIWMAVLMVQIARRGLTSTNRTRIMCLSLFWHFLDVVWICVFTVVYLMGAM
T2 sequence (P0ABI8 whole entry): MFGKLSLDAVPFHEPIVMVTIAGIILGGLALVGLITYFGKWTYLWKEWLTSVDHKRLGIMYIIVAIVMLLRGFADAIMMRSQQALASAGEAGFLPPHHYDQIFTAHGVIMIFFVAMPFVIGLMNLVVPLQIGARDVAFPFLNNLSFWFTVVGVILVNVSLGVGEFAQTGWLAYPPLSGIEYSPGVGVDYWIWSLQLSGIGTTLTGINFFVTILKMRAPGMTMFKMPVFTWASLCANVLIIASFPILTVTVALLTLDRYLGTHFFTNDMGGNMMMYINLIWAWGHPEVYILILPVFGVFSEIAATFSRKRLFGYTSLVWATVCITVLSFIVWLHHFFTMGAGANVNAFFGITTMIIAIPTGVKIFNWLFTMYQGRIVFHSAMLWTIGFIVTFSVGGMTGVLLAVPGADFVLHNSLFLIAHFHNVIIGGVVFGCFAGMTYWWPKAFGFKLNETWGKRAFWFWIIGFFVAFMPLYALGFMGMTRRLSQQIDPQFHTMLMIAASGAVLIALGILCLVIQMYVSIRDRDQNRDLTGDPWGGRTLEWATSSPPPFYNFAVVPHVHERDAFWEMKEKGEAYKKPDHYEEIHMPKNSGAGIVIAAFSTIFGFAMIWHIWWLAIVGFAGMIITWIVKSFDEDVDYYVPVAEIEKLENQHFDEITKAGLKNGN
T2 sequence (P0ABJ6 whole entry, further chain): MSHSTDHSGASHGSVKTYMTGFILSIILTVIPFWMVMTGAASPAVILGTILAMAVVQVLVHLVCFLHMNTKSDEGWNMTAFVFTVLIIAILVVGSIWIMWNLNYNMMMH
T3 sequence (P0ABJ1 25-315): as the sequence (P0ABJ1 25-315) above
T3 sequence (P0ABI8 whole entry): as the sequence (P0ABI8 whole entry) above
T3 sequence (P0ABJ3 whole entry, further chain): as the sequence (P0ABJ3 whole entry, further chain) above
T3 sequence (P0ABJ6 whole entry, further chain): as the sequence (P0ABJ6 whole entry, further chain) above

Compound | solubility at 1 day [1, 5] | remaining activity at 250 µM [2, 6] [%] | inhibition at 250 µM [3, 7] [%] | Residual activity for oxygen reduction, Cytochrome bo3 [3, 6] [%] | remaining activity at 250 µM [3, 6] [%] | inhibitory effect on cyt bd-I oxidase [2, 7] [%] | inhibitory effect on cyt bd-I activity (in words) ([2]; HNQ 250 μM) | inhibitory effect on cyt bo3 activity (in words) ([3]; HNQ 250 μM) | other results
O=C1C(O)=C(Cc2ccc3c(c2)OCO3)C(=O)c2ccccc21 [HNQ‐6, 2‐Hydroxy‐3‐[(1,2‐methylenedioxybenz‐5 yl)methyl]‐1,4‐naphthoquinone] | 400 µg/mL and 780 µM | 109 ± 13 | > 50 | < 30 | 27.3 ± 13 | – | – | – | –
2‐Hydroxy‐3‐[(3,5‐dihydroxybenzyl)methyl]‐1,4‐naphthoquinone [HNQ‐10] | – | – | – | 69.1 ± 8 | – | – | – | – | Solubility [1]: 840±151 μg/mL and 2.1±0.4 mM; Residual activity for oxygen reduction, Cytochrome bd-I [2, 6]: 107 ± 8%; inhibition (reduction) of cyt bo3 activity [3, 7]: 31%
CCCCCCCc1cc(O)c2ccccc2[n+]1[O-] [HQNO, 2‐heptyl‐4‐quinolinol 1‐oxide, reference compound] | – | 9.05 ± 1 | – | – | 4.42 ± 6 | – | – | – | Ki [4]: 700 nM
O=C1C(O)=C(Cc2ccc3[nH]ncc3c2)C(=O)c2ccccc21 [HNQ‐5, 2‐Hydroxy‐3‐[(indazol‐5‐yl)methyl]‐1,4‐naphthoquinone] | 1670 µg/mL and 5500 µM | 117 ± 7 | 40 | – | 59.9 ± 7 | – | – | – | –
CCCCCCCCCCCCCC1=C(O)C(=O)c2ccccc2C1=O [HNQ‐1, 2‐Hydroxy‐3‐tridecyl‐1,4‐naphthoquinone] | 335 µg/mL and 1020 µM | 70.2 ± 12 | > 50 | – | 2.64 ± 12 | 30 | – | – | –
COc1cc(CC2=C(O)C(=O)c3ccccc3C2=O)ccc1O [HNQ‐7, 2‐Hydroxy‐3‐[(4‐hydroxy‐3‐methoxyphenyl)methyl]‐1,4‐naphthoquinone] | > 2680 µg/mL and > 8300 µM | 106 ± 7 | > 50 | < 50 | 49.5 ± 7 | – | – | – | –
2‐Hydroxy‐3‐[(4‐phenoxybenzyl)methyl]‐1,4‐naphthoquinone [HNQ‐12] | – | – | – | 13.1 ± 7 | – | 56 | – | – | Solubility [1]: 1640±94 μg/mL and 4.6±0.3 mM; Residual activity for oxygen reduction, Cytochrome bd-I [2, 6]: 43.8 ± 7%; inhibition (reduction) of cyt bo3 activity [3, 7]: > 50%
O=C1C(O)=C(Cc2c[nH]c3ncccc23)C(=O)c2ccccc21 [HNQ‐8, 2‐Hydroxy‐3‐[(1H‐pyrrolo(2,3‐b)pyridine‐3‐yl)methyl]‐1,4‐naphthoquinone] | > 3140 µg/mL and > 10300 µM | 106 ± 5 | – | – | 101 ± 5 | < 30 | could not show an influence | could not show an influence | –
O=C1C(O)=C(C(c2nc3ccccc3s2)N2CCC[C@H]2C(=O)O)C(=O)c2ccccc21 (stereo partly drawn) [HNQ‐11, 2‐Hydroxy‐3‐[(2‐thiazol(2‐3)benzyl)methyl)pyrrolidine‐2‐carboxylic acid‐1,4‐naphthoquinone] | 800 µg/mL and 1840 µM | 111 ± 13 | < 30 | – | 115 ± 13 | < 30 | could not show an influence | could not show an influence | –
O=C1C(O)=C(Cc2ccccc2)C(=O)c2ccccc21 [HNQ‐2, 2‐Hydroxy‐3‐methylene‐(benzyl)‐1,4‐naphthoquinone] | – | 107 ± 6 | > 50 | – | 21.8 ± 6 | – | not influencing | strong inhibitory effect | Solubility ([1]; aqueous with cosolvent or surfactant or cyclodextrin, thermodynamic from solid, read-out: Solubility): 334 µg/mL and 1260 µM
2‐Hydroxy‐3‐[(ferreocenyl)methyl]‐1,4‐naphthoquinone [HNQ‐9] | – | – | – | – | – | – | – | – | Solubility [1]: >8.3 mM; Residual activity for oxygen reduction, Cytochrome bd-I [2]: 110 ± 17%; inhibitory effect on cyt bd-I oxidase [2]: < 30%; Residual activity for oxygen reduction, Cytochrome bo3 [3]: 84.4 ± 17%; inhibition (reduction) of cyt bo3 activity [3]: < 30%
CN(C)c1ccc(CC2=C(O)C(=O)c3ccccc3C2=O)cc1 [HNQ‐4, 2‐Hydroxy‐3‐methylen‐(4‐N,N ‐dimethylanilid)‐1,4 naphthoquinone] | 267 µg/mL and 870 µM | – | < 30 | 15 | – | < 30 | – | – | Residual activity for oxygen reduction, Cytochrome bd-I [2, 6]: 15%; Residual activity for oxygen reduction, Cytochrome bd-I [2, 8]: 84.2 ± 11%; Residual activity for oxygen reduction, Cytochrome bo3 [3, 8]: 84.8 ± 11%
O=C1C(O)=C(Cc2ccncc2)C(=O)c2ccccc21 [HNQ‐3, 2‐Hydroxy‐3‐methylen‐(4‐N‐pyridyl)‐1,4‐naphthoquinone] | 627 µg/mL and 2360 µM | 110 ± 12 | < 30 | – | 99.5 ± 12 | < 30 | activity remains unaffected | activity remains unaffected | –
